Laboratory results reported in US5254541A, “(Quinolin-2-ylmethoxy)indole/cyclodextrin complex” (Merck Frosst Canada, Inc., priority 1991, dated 1993).
Structures can show the parent of a compound that is named as a salt.

Legend:
[1] = oral bioavailability, general statement; settings: in vivo
[2] = solid state characteristics of the crystalline sodium salt; assay type: physicochemical; settings: non-hygroscopicity, physical stability, etc.
aqueous solubility = assay type: physicochemical; settings: water, crystalline sodium salt
[3] = assay type: physicochemical
Description: Phase solubility experiments were conducted by adding excess amounts (20 mg/mL) of L-686,708, sodium salt, to aqueous solutions (pH=9) containing various amounts of cyclodextrin and mixing on a rotating mixer. After equilibration at room temperature for at least 48 hrs, aliquots of the mixture were centrifuged to separate the undissolved sodium salt. The supernatant was diluted and dissolved L-686,708 concentration measured by HPLC. […] This stability constant is a tentative measure of complex formation.

SMILES: CC(C)(C)Sc1c(CC(C)(C)C(=O)O)n(Cc2ccc(Cl)cc2)c2ccc(OCc3ccc4ccccc4n3)cc12 [L-686,708 sodium salt, Crystalline 3-[N-(p-chlorobenzyl)-3-(t-butylthio)-5-(quinolin-2-ylmethoxy)indol-2-yl]-2.2-dimethylpropanoic acid, sodium salt]
- oral bioavailability (in words) [1]: low oral bioavailability
- solid state characteristics (in words) [2]: good solid state characteristics, such as non-hygroscopicity, physical stability
- solubility (aqueous solubility): 5 to 30 µg/mL
- type of solubility curve (Higuchi) [3]: An -type
